Source: patent US20230233567A1, “BELVARAFENIB FOR USE IN CANCER TREATMENT” (Hanmi Pharm. Co., Ltd., priority 2020, published 2023)
Where two headings read alike, the source gives them in different places. One block for each compound: values may come before it.

Legend:
LS174T (KRAS^G12D) = assay: In vitro cell growth inhibition, CRC; format: cell-based; details: Homo sapiens
[1] = system: MEK and ERK phosphorylation in HCT116 (KRAS^G13D) cells; assay: Inhibition of MEK and ERK phosphorylation, KRAS mutant; format: cell-based; details: Homo sapiens, HCT-116, CRC HCT116, KRAS G13D, 2 hr treatment
[2] = system: MEK and ERK phosphorylation in Calu-6 (KRAS^Q61K) cells; assay: as above; format: cell-based; details: Homo sapiens, NSCLC Cau-6 (Calu-6), 2 hr treatment
B-CPAP (BRAF^V600E) = assay: In vitro cell growth inhibition, thyroid cancer; format: cell-based; details: Homo sapiens, BCPAP
CAL-62 (KRAS^G12R) = assay: In vitro cell growth inhibition, thyroid cancer; format: cell-based; details: Homo sapiens
Colo-205 (BRAF^V600E) = assay: In vitro cell growth inhibition, CRC; format: cell-based; details: Homo sapiens
8505C (BRAF^V600E) = assay: In vitro cell growth inhibition, thyroid cancer; format: cell-based; details: Homo sapiens
Calu-1 (KRAS^G12C) = assay: In vitro cell growth inhibition, NSCLC; format: cell-based; details: Homo sapiens
DDR1 = DDR1 (Homo sapiens, UniProt Q08345); assay: In vitro kinase assay; format: biochemical; details: confirmatory assay
Chain of DDR1 (Q08345 19-913): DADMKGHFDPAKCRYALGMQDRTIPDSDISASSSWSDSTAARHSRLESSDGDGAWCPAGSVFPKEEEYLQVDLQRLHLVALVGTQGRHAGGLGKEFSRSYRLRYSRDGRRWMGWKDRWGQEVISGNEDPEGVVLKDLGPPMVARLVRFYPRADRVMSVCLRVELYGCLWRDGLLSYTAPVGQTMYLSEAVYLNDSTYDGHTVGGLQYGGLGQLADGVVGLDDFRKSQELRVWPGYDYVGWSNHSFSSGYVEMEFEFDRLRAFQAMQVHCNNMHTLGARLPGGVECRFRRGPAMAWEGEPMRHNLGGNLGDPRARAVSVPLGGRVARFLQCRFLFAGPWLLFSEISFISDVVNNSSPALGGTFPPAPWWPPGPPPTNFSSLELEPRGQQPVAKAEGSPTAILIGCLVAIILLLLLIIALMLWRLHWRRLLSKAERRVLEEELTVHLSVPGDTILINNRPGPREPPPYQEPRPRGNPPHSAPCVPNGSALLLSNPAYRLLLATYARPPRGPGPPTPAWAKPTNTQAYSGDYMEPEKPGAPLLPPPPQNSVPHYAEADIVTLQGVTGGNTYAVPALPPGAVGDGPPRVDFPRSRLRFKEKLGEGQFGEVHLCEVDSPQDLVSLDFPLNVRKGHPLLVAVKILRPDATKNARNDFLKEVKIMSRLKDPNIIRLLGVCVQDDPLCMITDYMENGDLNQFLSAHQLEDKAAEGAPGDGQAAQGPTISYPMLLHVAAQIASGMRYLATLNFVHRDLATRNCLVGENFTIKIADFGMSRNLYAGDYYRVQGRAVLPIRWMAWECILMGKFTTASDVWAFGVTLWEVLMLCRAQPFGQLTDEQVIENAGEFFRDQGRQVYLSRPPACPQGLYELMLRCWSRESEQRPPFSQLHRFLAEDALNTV
Procedure: (§1) The in vitro kinase inhibitory selectivity and activity of belvarafenib were evaluated in a kinase panel assay against 189 kinases and a subsequent confirmatory assay against selected kinases by using Z′-Lyte® biochemical assay, Lantha® binding assay and Adapter® assay.

CSF1R (FMS) = CSF1R (FMS) (Homo sapiens, UniProt P07333); assay: In vitro kinase assay; format: biochemical; details: confirmatory assay
Chain of CSF1R (FMS) (P07333 20-972): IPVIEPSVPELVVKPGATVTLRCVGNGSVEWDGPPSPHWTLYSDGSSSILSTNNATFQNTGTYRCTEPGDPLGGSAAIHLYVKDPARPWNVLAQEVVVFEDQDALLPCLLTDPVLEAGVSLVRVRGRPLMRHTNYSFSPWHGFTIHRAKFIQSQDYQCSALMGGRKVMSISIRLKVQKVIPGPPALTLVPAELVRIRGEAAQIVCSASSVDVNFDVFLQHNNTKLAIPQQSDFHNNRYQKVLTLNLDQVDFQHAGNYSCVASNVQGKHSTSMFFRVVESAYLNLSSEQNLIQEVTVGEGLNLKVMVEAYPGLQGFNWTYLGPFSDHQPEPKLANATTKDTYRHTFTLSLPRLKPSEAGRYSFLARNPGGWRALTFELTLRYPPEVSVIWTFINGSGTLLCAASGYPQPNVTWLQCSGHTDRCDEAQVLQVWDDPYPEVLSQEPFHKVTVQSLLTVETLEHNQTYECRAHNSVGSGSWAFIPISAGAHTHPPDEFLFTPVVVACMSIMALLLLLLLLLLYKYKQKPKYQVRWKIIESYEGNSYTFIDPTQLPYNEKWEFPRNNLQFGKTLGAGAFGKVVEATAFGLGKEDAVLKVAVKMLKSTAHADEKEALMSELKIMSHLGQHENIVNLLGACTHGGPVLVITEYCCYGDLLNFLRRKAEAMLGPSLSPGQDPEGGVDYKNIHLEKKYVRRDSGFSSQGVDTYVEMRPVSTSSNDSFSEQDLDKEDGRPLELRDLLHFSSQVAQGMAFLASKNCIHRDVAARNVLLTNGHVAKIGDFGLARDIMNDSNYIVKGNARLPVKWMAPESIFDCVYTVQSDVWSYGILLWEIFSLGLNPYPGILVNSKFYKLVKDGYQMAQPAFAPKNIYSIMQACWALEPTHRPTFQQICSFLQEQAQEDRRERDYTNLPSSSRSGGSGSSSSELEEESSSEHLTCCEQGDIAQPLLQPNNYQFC
Procedure: as §1

DDR2 = molecular target: T1, DDR2 (Homo sapiens, UniProt Q16832); assay: In vitro kinase assay; format: biochemical; details: confirmatory assay
T1 sequence (Q16832 22-855): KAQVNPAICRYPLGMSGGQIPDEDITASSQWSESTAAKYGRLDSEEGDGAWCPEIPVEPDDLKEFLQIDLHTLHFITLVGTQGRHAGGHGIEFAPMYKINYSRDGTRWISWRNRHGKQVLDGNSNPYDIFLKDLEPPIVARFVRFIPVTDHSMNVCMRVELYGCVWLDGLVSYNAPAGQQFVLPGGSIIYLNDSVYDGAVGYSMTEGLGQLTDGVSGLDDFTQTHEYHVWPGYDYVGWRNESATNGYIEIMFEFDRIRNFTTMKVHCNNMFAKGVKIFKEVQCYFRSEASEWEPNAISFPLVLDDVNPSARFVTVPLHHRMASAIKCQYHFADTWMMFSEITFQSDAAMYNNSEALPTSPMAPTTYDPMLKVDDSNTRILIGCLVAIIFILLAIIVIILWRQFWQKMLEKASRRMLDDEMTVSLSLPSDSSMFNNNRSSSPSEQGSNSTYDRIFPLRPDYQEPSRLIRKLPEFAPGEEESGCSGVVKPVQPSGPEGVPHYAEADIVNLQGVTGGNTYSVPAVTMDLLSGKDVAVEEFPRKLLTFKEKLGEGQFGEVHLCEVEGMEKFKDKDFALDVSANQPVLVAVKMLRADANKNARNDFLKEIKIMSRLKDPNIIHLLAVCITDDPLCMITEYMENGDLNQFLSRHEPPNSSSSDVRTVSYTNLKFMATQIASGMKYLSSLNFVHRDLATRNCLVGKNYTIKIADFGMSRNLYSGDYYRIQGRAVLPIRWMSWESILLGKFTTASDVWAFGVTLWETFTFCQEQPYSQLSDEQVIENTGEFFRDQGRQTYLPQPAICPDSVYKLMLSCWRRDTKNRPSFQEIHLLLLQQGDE
Procedure: as §1

[3] = system: MEK and ERK phosphorylation in SK-MEL-30 (NRAS^Q61K) cells; assay: Inhibition of MEK and ERK phosphorylation; format: cell-based; details: Homo sapiens
[4] = system: MEK and ERK phosphorylation in Lovo (KRAS^G13D) cells; assay: Inhibition of MEK and ERK phosphorylation, KRAS mutant; format: cell-based; details: Homo sapiens, CRC Lovo, KRAS G13D, 2 hr treatment
SK-MEL-30 (NRAS^Q61K) = assay: In vitro cell growth inhibition, melanoma; format: cell-based; details: Homo sapiens, mean ± SD, n = 3
Procedure: (§2) A G150 of 69, 57, 53, and 24 nM were determined for SK-MEL-28, A375, SK-MEL-2, and SK-MEL-30 cell lines, respectively.

SK-MEL-2 (NRAS^Q61R) = assay: In vitro cell growth inhibition, melanoma; format: cell-based; details: Homo sapiens, mean ± SD, n = 3
Procedure: as §2

HCT116 (KRAS^G13D) = assay: In vitro cell growth inhibition, CRC; format: cell-based; details: Homo sapiens, HCT-116
[5] = system: MEK and ERK phosphorylation in SK-MEL-2 (NRAS^Q61R) cells; assay: Inhibition of MEK and ERK phosphorylation; format: cell-based; details: Homo sapiens
NPA (BRAF^V600E) = assay: In vitro cell growth inhibition, thyroid cancer; format: cell-based
[6] = system: MEK and ERK phosphorylation in A375 (BRAF^V600E) cells; assay: Inhibition of MEK and ERK phosphorylation; format: cell-based; details: Homo sapiens
SNU790 (BRAF^V600E) = assay: In vitro cell growth inhibition, thyroid cancer; format: cell-based; details: SNU7890, BRAF^V600E
Calu-6 (KRAS^Q61K) = assay: In vitro cell growth inhibition, NSCLC; format: cell-based; details: Homo sapiens
ARO (BRAF^V600E) = assay: In vitro cell growth inhibition, thyroid cancer; format: cell-based
SNU80 (BRAF^G468R) = assay: In vitro cell growth inhibition, thyroid cancer; format: cell-based
LS513 (KRAS^G12D) = assay: In vitro cell growth inhibition, CRC; format: cell-based; details: Homo sapiens, LS-513
Lovo (KRAS^G13D) = assay: In vitro cell growth inhibition, CRC; format: cell-based; details: Homo sapiens
HT-29 (BRAF^V600E) = assay: In vitro cell growth inhibition, CRC; format: cell-based; details: Homo sapiens
SK-MEL-28 (BRAF^V600E) = assay: In vitro cell growth inhibition, melanoma; format: cell-based; details: Homo sapiens, mean ± SD, n = 3
FRO (BRAF^V600E) = assay: In vitro cell growth inhibition, thyroid cancer; format: cell-based
[7] = system: MEK and ERK phosphorylation in SK-MEL-28 (BRAF^V600E) cells; assay: Inhibition of MEK and ERK phosphorylation; format: cell-based; details: Homo sapiens
A375 (BRAF^V600E) = assay: In vitro cell growth inhibition, melanoma; format: cell-based; details: Homo sapiens, A-375, mean ± SD, n = 3
P-MEK / total MEK = assay: % P/T-MEK (ratio of P-MEK and total MEK)
Procedure: Belvarafenib was evaluated to measure the inhibition capability of RAF monomers and dimers. In Table 12: “A375” refers to the A375 a human melanoma cell line bearing a BRAF^V600E mutation; “IPC298” refers to the IPC298 cutaneous melanoma cell line bearing an NRAS^Q61L mutation; “A549” refers to the A549 lung adenocarcinoma cell line baring a KRAS mutation; “CSFR1” refers to the CSFR1 gene; “DDR1” refers to discoidin domain receptors DDR1; and “DDR2” refers to discoidin domain receptors DDR2. In Table 13: “% P/T−MEK” refers to the ratio of P-MEK and total MEK; “Conc 1” refers to an inhibitor first (lowest) concentration; “Conc 2” refers to an inhibitor second (intermediate) concentration; and “Conc 3” refers to an inhibitor third (highest) concentration. In Table 13, LXH254 refers to a drug having CAS No.: 1800398-38-2 and the following structure: […]

NRAS-mutant melanoma = NRAS-mutant melanoma patients, NEMO study; cited from earlier work
[8] = Conc 1, first (lowest) concentration
[9] = Conc 2, second (intermediate) concentration
[10] = Conc 3, third (highest) concentration

IC50 ([1]; read-out: IC50 pERK): > 10000 nM | IC50 ([1]; read-out: IC50 pMEK): > 10000 nM | IC50 ([2]; read-out: IC50 pERK): > 10000 nM | IC50 ([2]; read-out: IC50 pMEK): > 10000 nM | GI50 (B-CPAP (BRAF^V600E)): 31 nM | GI50 (CAL-62 (KRAS^G12R)): > 10000 nM | GI50 (Colo-205 (BRAF^V600E)): 65 nM | GI50 (8505C (BRAF^V600E)): 3440 nM | GI50 (Calu-1 (KRAS^G12C)): 7480 nM | IC50 (DDR1): > 10000 nM | IC50 (CSF1R (FMS)): > 10000 nM | IC50 (DDR2): > 10000 nM | IC50 ([3]; read-out: IC50 pERK): > 10000 nM | IC50 ([3]; read-out: IC50 pMEK): > 10000 nM | IC50 ([4]; read-out: IC50 pERK): > 10000 nM | IC50 ([4]; read-out: IC50 pMEK): > 10000 nM | GI50 (SK-MEL-30 (NRAS^Q61K)): > 10000 nM | GI50 (SK-MEL-2 (NRAS^Q61R)): > 10000 nM | GI50 (HCT116 (KRAS^G13D)): > 10000 nM | IC50 ([5]; read-out: IC50 pERK): > 10000 nM | IC50 ([5]; read-out: IC50 pMEK): > 10000 nM | GI50 (NPA (BRAF^V600E)): 44 nM | IC50 ([6]; A-375, read-out: IC50 pERK): 20 nM | IC50 ([6]; A-375, read-out: IC50 pMEK): 73 nM | GI50 (SNU790 (BRAF^V600E)): 190 nM | GI50 (Calu-6 (KRAS^Q61K)): > 10000 nM | GI50 (ARO (BRAF^V600E)): 5260 nM | GI50 (SNU80 (BRAF^G468R)): 2850 nM | GI50 (Lovo (KRAS^G13D)): 4020 nM | GI50 (HT-29 (BRAF^V600E)): 110 nM | GI50 (SK-MEL-28 (BRAF^V600E)): 77 ± 17 nM | GI50 (FRO (BRAF^V600E)): 1760 nM | IC50 ([7]; read-out: IC50 pERK): 28 nM | IC50 ([7]; read-out: IC50 pMEK): 32 nM | GI50 (A375 (BRAF^V600E)): 75 ± 12 nM
SMILES: CCCS(=O)(=O)Nc1ccc(F)c(C(=O)c2c[nH]c3ncc(-c4ccc(Cl)cc4)cc23)c1F [Vemurafenib, reference compound]
GI50 (LS174T (KRAS^G12D)): > 10000 nM | GI50 (LS513 (KRAS^G12D)): > 10000 nM

SMILES: CC(C)(C)c1nc(-c2cccc(NS(=O)(=O)c3c(F)cccc3F)c2F)c(-c2ccnc(N)n2)s1 [Dabrafenib]
GI50 (LS174T (KRAS^G12D)): > 10000 nM | IC50 ([1]; read-out: IC50 pERK): > 10000 nM | IC50 ([1]; read-out: IC50 pMEK): > 10000 nM | IC50 ([2]; read-out: IC50 pERK): > 10000 nM | IC50 ([2]; read-out: IC50 pMEK): > 10000 nM | GI50 (Calu-1 (KRAS^G12C)): 904 nM | IC50 ([4]; read-out: IC50 pERK): > 10000 nM | IC50 ([4]; read-out: IC50 pMEK): > 10000 nM | GI50 (SK-MEL-30 (NRAS^Q61K)): 258 nM | GI50 (SK-MEL-2 (NRAS^Q61R)): 204 nM | GI50 (HCT116 (KRAS^G13D)): > 10000 nM | % P/T-MEK (P-MEK / total MEK; [8]): 125% | % P/T-MEK (P-MEK / total MEK; [9]): 150% | % P/T-MEK (P-MEK / total MEK; [10]): 75% | GI50 (Calu-6 (KRAS^Q61K)): 618 nM | GI50 (LS513 (KRAS^G12D)): 3060 nM | GI50 (Lovo (KRAS^G13D)): 214 nM | GI50 (SK-MEL-28 (BRAF^V600E)): < 0.1 nM | GI50 (A375 (BRAF^V600E)): < 0.1 nM

SMILES: Cc1ccc(NC(=O)c2ccnc(C(F)(F)F)c2)cc1-c1cc(OCCO)nc(N2CCOCC2)c1 [LXH254]
% P/T-MEK (P-MEK / total MEK; [8]): 80% | % P/T-MEK (P-MEK / total MEK; [9]): 70% | % P/T-MEK (P-MEK / total MEK; [10]): 10%

SMILES: Cn1cnc2c(F)c(Nc3ccc(Br)cc3F)c(C(=O)NOCCO)cc21 [binimetinib]
mPFS (NRAS-mutant melanoma): 2.8 months | overall response rate (NRAS-mutant melanoma): 15%
